According to patent US4444776A, “Dipyrido (4,3-B) (3,4-F) indoles, process for obtaining them, therapeutical use and pharmaceutical compositions” (priority 1977, dated 1984):

Key:
[1] = test system: replication of the DNA; test: Test 6: DNA replication in synchronised cells; assay type: cell-based; conditions: first minutes following addition
[2] = test system: L 1210 leukemia; test: Test 10: comparison of antitumoral activity with known products, L 1210 (Tables V-VII); assay type: in vivo, mouse
Procedure: Test 10: Comparison of the antitumoral activity of the compound according to example 7 with that of known products
The compound of example 7, i.e. 1-(γ-diethylaminopropyl)amino-5-methyl-dipyrido-[4,3-b][3,4-f] indole or known compounds were injected into L 1210 leukemic mice 1 or 3 days after the inoculation of the cells at the doses indicated in tables V to VII and the mean survival time (MST) and the precentage of increased life span (ILS %) were measured.
Indications concerned the known products used in this example and particularly their antitumoral properties, their secondary effects and their use in man may be found in "La Chimiotherapie des Cancers", by G. MATHE and M. KENIS Expansion Scientifique Francaise, 3rd edition, Paris 1975.

[3] = Table V, 10^4 cells, J+1, 0.2 mg/mouse
[4] = Table V, 10^4 cells, J+3, doses mg/mouse: example 7 0.2, Thiotepa 0.1, Mitomycine 0.016, BCNU 0.1, Methotrexate 0.250
[5] = Table VI, 10^5 cells, J+1, 0.2 mg/mouse
[6] = Table VI, 10^5 cells, J+3, mg/mouse: Thiotepa 0.1, Mitomycine C 0.016, BCNU 0.1, Methotrexate 0.250, example 7 0.2, Endoxan 4
[7] = Table VII, 10^5 cells, J+3, example 7 0.2 mg/mouse, ON COVIN 0.5 μg/mouse

Compound	replication of the DNA, initiation and elongation steps [1]	Range of death (first death) [2, 3] [days]	mice alive on 30th day [2, 3]	ILS % [2, 4] [%]	MTS (mean survival time) [2, 4]	Range of death ([2]; Table V, 10^4 cells, J+3, mg/mouse: example 7 0.2, Thiotepa 0.1, Mitomycine 0.016, BCNU 0.1, Methotrexate 0.250, Endoxan 4) [days]	ILS % [2, 5] [%]	MTS (mean survival time) [2, 5]	Range of death [2, 5]	ILS % [2, 6] [%]	MTS (mean survival time) [2, 6]	Range of death [2, 6]	ILS % [2, 7] [%]	MTS (mean survival time) [2, 7]	Range of death [2, 7]
Cc1c2ccncc2c(C)c2c1[nH]c1ccncc12 [Example 1, 5,11-dimethyl dipyrido [4,3-b][3,4-f] indole]	stops, in the first minutes following its addition, the replication of the DNA	–	–	–	–	–	–	–	–	–	–	–	–	–	–
CCN(CC)CCCNc1nccc2c(C)c3[nH]c4ccncc4c3cc12 [Example 7, 1-(γ-diethylaminopropyl)amino-5-methyl-dipyrido-[4,3-b][3,4-f] indole]	–	6	1	25.45	13.8	11 to 17	39.07	12.6	9-16	35.43	12.27	10-15	36.35	14.18	13-16
